Results reported in patent US7449498B2, “Composite materials for bone defect filling and bone replacement” (Yesbio Co., Ltd., priority 2005, dated 2008).

Experiment: Measurement of exothermic temperature during polymerization
Type: physicochemical
Settings: FIG. 3
Method: The composite material was mixed for 30 seconds and injected to a mold having a size in 5 mm of height and 3 mm of radius. Then, the temperature changes was measured in 3 samples per each group by inserting a thermocouple and read with a thermocouple reader (Yocogawa, Japan).

temperature changes during polymerizing, in words: excessively exothermic
SMILES: C=C(C#N)C(=O)OCCCC [BCA, n-butyl-2-cyanoacrylate]
